Laboratory results reported in patent US20260364030A1, “NOVEL SELECTIVE INHIBITORS OF LYSYL OXIDASES” (Syntara Limited, priority 2022, published 2026).

Experiments:
LOXL2 = target: T1, LOXL2 (Homo sapiens, UniProt Q9Y4K0); experiment: LOXL2 inhibition, Amplex Red oxidation assay; format: biochemical; conditions: 2 h incubation with enzyme at 37 °C; read-out: Human LOXL2 Activity IC50
T1 sequence (Q9Y4K0 26-774): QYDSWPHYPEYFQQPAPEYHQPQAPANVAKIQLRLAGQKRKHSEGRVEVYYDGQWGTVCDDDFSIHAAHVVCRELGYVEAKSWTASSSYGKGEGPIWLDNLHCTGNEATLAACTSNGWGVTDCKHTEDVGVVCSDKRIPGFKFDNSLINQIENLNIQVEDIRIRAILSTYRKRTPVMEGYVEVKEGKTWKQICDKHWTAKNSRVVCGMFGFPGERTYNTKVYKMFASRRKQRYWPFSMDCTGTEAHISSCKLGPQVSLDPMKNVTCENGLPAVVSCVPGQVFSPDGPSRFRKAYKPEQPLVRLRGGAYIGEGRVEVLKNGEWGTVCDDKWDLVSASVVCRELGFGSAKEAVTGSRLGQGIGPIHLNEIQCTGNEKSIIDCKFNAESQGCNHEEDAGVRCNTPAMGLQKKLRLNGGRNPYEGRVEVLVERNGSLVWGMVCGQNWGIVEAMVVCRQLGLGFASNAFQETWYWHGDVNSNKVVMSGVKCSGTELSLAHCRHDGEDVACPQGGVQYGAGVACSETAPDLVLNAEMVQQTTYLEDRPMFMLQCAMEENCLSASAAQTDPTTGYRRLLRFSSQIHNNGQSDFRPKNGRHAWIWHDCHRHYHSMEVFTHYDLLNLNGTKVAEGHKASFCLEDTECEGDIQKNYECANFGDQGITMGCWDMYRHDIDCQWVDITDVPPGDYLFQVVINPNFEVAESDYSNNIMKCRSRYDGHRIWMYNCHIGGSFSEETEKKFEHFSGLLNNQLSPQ
Experimental: (§1) LOX and LOXL protein family members can be acquired as recombinant active proteins from commercial sources, or extracted from animal tissues like bovine aorta, tendons, pig skin; or prepared from cell cultures. The inhibitory effects of the compounds of the present invention were tested against the given LOX or LOXL preparation using a method based on the detection of hydrogen peroxide with an Amplex Red oxidation assay [Zhou et al, 1997]. The assay was developed using either 384 or 96 well format. Briefly, in a standard black, clear bottom 384 well plate assay 25 µL of a dilution of any of the isoenzymes and orthologues in 1.2 M urea, 50 mM sodium borate buffer (pH 8.2) were added into each well in the presence of […] and 0.5 mM pargyline (to inhibit SSAO and MAO-B and MAO-A, respectively; not necessary if the enzyme is from a recombinant or purified form). […] of a reaction mixture containing twice the KM concentration of putrescine (Sigma Aldrich, e.g. 20 mM for LOX and LOXL1 or 10 mM for LOXL2 and 4 mM for LOXL3 and LOXL4), 120 µM Amplex Red (Thermo Fisher Scientific) and 1.5 U/mL horseradish peroxidase (Sigma Aldrich) prepared in 1.2 M urea, 50 mM sodium borate buffer (pH 8.2) were then added to the corresponding wells. The above volumes were doubled in the case of 96 wells plate. The fluorescence (RFU) was read every 2.5 min for 30 min at 37 °C, excitation 544 nm and emission 590 (Optima; BMG labtech). The slope/min of the kinetics for each well was calculated using MARS data analysis software (BMG labtech) and this value was used to deduce the IC50 value (Dotmatics). The ability of the inventive compounds to inhibit the amine oxidase activity of LOX and other family members is shown in Table 5.

Bovine LOX = target: T2, Bovine LOX (Bos taurus, UniProt P33072); experiment: LOX inhibition, hydrogen peroxide Amplex Red oxidation assay; format: biochemical; conditions: 2 h incubation with enzyme at 37 °C
T2 sequence (P33072 170-418): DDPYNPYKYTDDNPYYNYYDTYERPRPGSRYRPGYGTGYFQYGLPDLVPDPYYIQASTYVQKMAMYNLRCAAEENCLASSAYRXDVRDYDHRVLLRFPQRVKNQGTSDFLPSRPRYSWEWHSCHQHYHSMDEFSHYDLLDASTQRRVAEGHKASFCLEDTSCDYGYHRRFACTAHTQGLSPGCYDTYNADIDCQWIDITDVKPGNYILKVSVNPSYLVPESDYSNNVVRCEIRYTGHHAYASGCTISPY
Experimental: as §1

Q: Which results are given for `N#Cc1cccc(S(=O)(=O)C/C(=C/F)CN)c1` [Compound 2, (E)-3-((2-(aminomethyl)-3-fluoroallyl)sulfonyl)benzonitrile]?
A: IC50 (LOXL2): < 2000 nM; IC50 (Bovine LOX): < 2000 nM

Q: Which results are given for `Cc1ccccc1S(=O)(=O)C/C(=C/F)CN` [Compound 3, (E)-3-fluoro-2-((o-tolylsulfonyl)methyl)prop-2-en-1-amine]?
A: IC50 (LOXL2): < 2000 nM; IC50 (Bovine LOX): < 5000 nM

Q: With `Cc1ccc(S(=O)(=O)C/C(=C/F)CN)cc1` [Compound 4, (E)-3-fluoro-2-(tosylmethyl)prop-2-en-1-amine] as the molecule, how does the IC50 (LOXL2) read?
A: < 2000 nM

Q: And the IC50 (Bovine LOX)?
A: < 5000 nM

Q: Which results are given for `NC/C(=C\F)CS(=O)(=O)c1cccc(F)c1` [Compound 5, (E)-3-fluoro-2-(((3-fluorophenyl)sulfonyl)methyl)prop-2-en-1-amine]?
A: IC50 (LOXL2): < 2000 nM; IC50 (Bovine LOX): < 2000 nM

Q: `NC/C(=C\F)CS(=O)(=O)c1ccccc1Cl` [Compound 6, (E)-2-(((2-chlorophenyl)sulfonyl)methyl)-3-fluoroprop-2-en-1-amine] was tested. Which IC50 (LOXL2) did it give?
A: < 5000 nM

Q: And the IC50 (Bovine LOX)?
A: < 5000 nM

Q: With `NC/C(=C\F)CS(=O)(=O)c1cccc2cccnc12` [Compound 7, (E)-3-fluoro-2-((quinolin-8-ylsulfonyl)methyl)prop-2-en-1-amine] as the molecule, how does the IC50 (LOXL2) read?
A: < 2000 nM

Q: And the IC50 (Bovine LOX)?
A: < 10000 nM

Q: Which IC50 (LOXL2) does the source give for `Cc1ccc(S(=O)(=O)C/C(=C/F)CN)cc1Cl` [Compound 8, (E)-2-(((3-chloro-4-methylphenyl)sulfonyl)methyl)-3-fluoroprop-2-en-1-amine] here?
A: < 2000 nM

Q: And the IC50 (Bovine LOX)?
A: < 2000 nM

Q: What does the source list for `Cc1ccc(S(=O)(=O)C/C(=C/F)CN)cc1C` [Compound 9, (E)-2-(((3,4-dimethylphenyl)sulfonyl)methyl)-3-fluoroprop-2-en-1-amine]?
A: IC50 (LOXL2): < 2000 nM; IC50 (Bovine LOX): < 2000 nM

Q: For `NC/C(=C\F)CS(=O)(=O)c1cccc(C(F)(F)F)c1` [Compound 10, (E)-3-fluoro-2-(((3-(trifluoromethyl)phenyl)sulfonyl)methyl)prop-2-en-1-amine], which IC50 (LOXL2) is on record?
A: < 2000 nM

Q: What about the IC50 (Bovine LOX) of the same molecule?
A: < 2000 nM

Q: With `CC(C)c1cccc(S(=O)(=O)C/C(=C/F)CN)c1` [Compound 11, (E)-3-fluoro-2-(((3-isopropylphenyl)sulfonyl)methyl)prop-2-en-1-amine] as the molecule, how does the IC50 (LOXL2) read?
A: < 2000 nM

Q: What about the IC50 (Bovine LOX) of the same molecule?
A: < 2000 nM

Q: Which IC50 (LOXL2) does the source give for `N#Cc1ccccc1S(=O)(=O)C/C(=C/F)CN` [Compound 12, (E)-2-((2-(aminomethyl)-3-fluoroallyl)sulfonyl)benzonitrile] here?
A: < 5000 nM

Q: And the IC50 (Bovine LOX)?
A: < 5000 nM

Q: Which results are given for `NC/C(=C\F)CS(=O)(=O)c1cccc([N+](=O)[O-])c1` [Compound 13, (E)-3-fluoro-2-(((3-nitrophenyl)sulfonyl)methyl)prop-2-en-1-amine]?
A: IC50 (LOXL2): < 2000 nM; IC50 (Bovine LOX): < 2000 nM

Q: With `NC/C(=C\F)CS(=O)(=O)c1cccc(S(=O)(=O)c2ccccc2)c1` [Compound 14, (E)-3-fluoro-2-(((3-(phenylsulfonyl)phenyl)sulfonyl)methyl)prop-2-en-1-amine] as the molecule, how does the IC50 (LOXL2) read?
A: < 2000 nM

Q: And the IC50 (Bovine LOX)?
A: < 2000 nM

Q: Which IC50 (LOXL2) does the source give for `NC/C(=C\F)CS(=O)(=O)c1cccc(Br)c1` [Compound 15, (E)-2-(((3-bromophenyl)sulfonyl)methyl)-3-fluoroprop-2-en-1-amine] here?
A: < 2000 nM

Q: And the IC50 (Bovine LOX)?
A: < 2000 nM

Q: With `NC/C(=C\F)CS(=O)(=O)c1cccc(-c2nccs2)c1` [Compound 16, (E)-3-fluoro-2-(((3-(thiazol-2-yl)phenyl)sulfonyl)methyl)prop-2-en-1-amine] as the molecule, how does the IC50 (LOXL2) read?
A: < 2000 nM

Q: What about the IC50 (Bovine LOX) of the same molecule?
A: < 2000 nM

Q: For `Cc1ncc(-c2cccc(S(=O)(=O)C/C(=C/F)CN)c2)s1` [Compound 17, (E)-3-fluoro-2-(((3-(2-methylthiazol-5-yl)phenyl)sulfonyl)methyl)prop-2-en-1-amine], which IC50 (LOXL2) is on record?
A: < 2000 nM

Q: What about the IC50 (Bovine LOX) of the same molecule?
A: < 2000 nM

Q: Which IC50 (LOXL2) does the source give for `Cc1ccn(-c2cccc(S(=O)(=O)C/C(=C/F)CN)c2)n1` [Compound 18, (E)-3-fluoro-2-(((3-(3-methyl-1H-pyrazol-1-yl)phenyl)sulfonyl)methyl)prop-2-en-1-amine] here?
A: < 2000 nM

Q: What about the IC50 (Bovine LOX) of the same molecule?
A: < 2000 nM

Q: Which results are given for `NC/C(=C\F)CS(=O)(=O)c1cccc(Cl)c1` [Compound 19, (E)-2-(((3-chlorophenyl)sulfonyl)methyl)-3-fluoroprop-2-en-1-amine]?
A: IC50 (LOXL2): < 2000 nM; IC50 (Bovine LOX): < 2000 nM

Q: How did the IC50 (LOXL2) turn out when `Cc1cccc(S(=O)(=O)C/C(=C/F)CN)c1` [Compound 20, (E)-3-fluoro-2-((m-tolylsulfonyl)methyl)prop-2-en-1-amine] was run?
A: < 2000 nM

Q: And the IC50 (Bovine LOX)?
A: < 2000 nM

Q: What does the source list for `CS(=O)(=O)c1ccc(S(=O)(=O)C/C(=C/F)CN)cc1` [Compound 21, (E)-3-fluoro-2-(((4-(methylsulfonyl)phenyl)sulfonyl)methyl)prop-2-en-1-amine]?
A: IC50 (LOXL2): < 2000 nM; IC50 (Bovine LOX): < 2000 nM

Q: With `NC/C(=C\F)CS(=O)(=O)c1ccc2ccccc2c1` [Compound 22, (E)-3-fluoro-2-((naphthalen-2-ylsulfonyl)methyl)prop-2-en-1-amine] as the molecule, how does the IC50 (LOXL2) read?
A: < 2000 nM

Q: And the IC50 (Bovine LOX)?
A: < 2000 nM

Q: With `CS(=O)(=O)c1cccc(S(=O)(=O)C/C(=C/F)CN)c1` [Compound 23, (E)-3-fluoro-2-(((3-(methylsulfonyl)phenyl)sulfonyl)methyl)prop-2-en-1-amine] as the molecule, how does the IC50 (LOXL2) read?
A: < 2000 nM

Q: And the IC50 (Bovine LOX)?
A: < 2000 nM

Q: `COc1cccc(S(=O)(=O)C/C(=C/F)CN)c1` [Compound 24, (E)-3-fluoro-2-(((3-methoxyphenyl)sulfonyl)methyl)prop-2-en-1-amine] was tested. Which IC50 (LOXL2) did it give?
A: < 2000 nM

Q: And the IC50 (Bovine LOX)?
A: < 2000 nM

Q: For `NC/C(=C\F)CS(=O)(=O)c1ccc2c(c1)OCCO2` [Compound 25, (E)-2-(((2,3-dihydrobenzo[b][1,4]dioxin-6-yl)sulfonyl)methyl)-3-fluoroprop-2-en-1-amine], which IC50 (LOXL2) is on record?
A: < 2000 nM

Q: And the IC50 (Bovine LOX)?
A: < 2000 nM

Q: `NC/C(=C\F)CS(=O)(=O)c1cccc(C(=O)O)c1` [Compound 26, (E)-3-((2-(aminomethyl)-3-fluoroallyl)sulfonyl)benzoic acid] was tested. Which IC50 (LOXL2) did it give?
A: < 5000 nM

Q: What about the IC50 (Bovine LOX) of the same molecule?
A: < 10000 nM

Q: How did the IC50 (LOXL2) turn out when `NC/C(=C\F)CS(=O)(=O)c1cccc(C(N)=O)c1` [Compound 27, (E)-3-((2-(aminomethyl)-3-fluoroallyl)sulfonyl)benzamide] was run?
A: < 2000 nM

Q: What about the IC50 (Bovine LOX) of the same molecule?
A: < 2000 nM

Q: Which IC50 (LOXL2) does the source give for `N#Cc1ccc(S(=O)(=O)C/C(=C/F)CN)cc1` [Compound 28, (E)-4-((2-(aminomethyl)-3-fluoroallyl)sulfonyl)benzonitrile] here?
A: < 2000 nM

Q: And the IC50 (Bovine LOX)?
A: < 5000 nM

Q: What does the source list for `Cc1ccc(S(=O)(=O)C/C(=C/F)CN)cc1C#N` [Compound 29, (E)-5-((2-(aminomethyl)-3-fluoroallyl)sulfonyl)-2-methylbenzonitrile]?
A: IC50 (LOXL2): < 2000 nM; IC50 (Bovine LOX): < 2000 nM

Q: `[2H]c1c([2H])c([2H])c(S(=O)(=O)C/C(=C/F)CN)c([2H])c1[2H]` [Compound 30, (E)-3-fluoro-2-(((phenyl-d5)sulfonyl)methyl)prop-2-en-1-amine] was tested. Which IC50 (LOXL2) did it give?
A: < 5000 nM

Q: And the IC50 (Bovine LOX)?
A: < 5000 nM

Q: How did the IC50 (LOXL2) turn out when `NC/C(=C\F)CS(=O)(=O)c1ccc(C(=O)O)cc1` [Compound 31, (E)-4-((2-(aminomethyl)-3-fluoroallyl)sulfonyl)benzoic acid] was run?
A: < 10000 nM

Q: What about the IC50 (Bovine LOX) of the same molecule?
A: < 10000 nM

Q: Which results are given for `NC/C(=C\F)CS(=O)(=O)c1cc(Cl)ccc1Cl` [Compound 32, (E)-2-(((2,5-dichlorophenyl)sulfonyl)methyl)-3-fluoroprop-2-en-1-amine]?
A: IC50 (LOXL2): < 2000 nM; IC50 (Bovine LOX): < 2000 nM

Q: How did the IC50 (Bovine LOX) turn out when `NC/C(=C\F)CS(=O)(=O)c1cccc(-n2nccn2)c1` [Compound 34, (E)-2-(((3-(2H-1,2,3-triazol-2-yl)phenyl)sulfonyl)methyl)-3-fluoroprop-2-en-1-amine] was run?
A: < 5000 nM
